Test results reported in PMC6797515, “Effects of Bakuchiol on chondrocyte proliferation via the PI3K‐Akt and ERK1/2 pathways mediated by the estrogen receptor for promotion of the regeneration of knee articular cartilage defects” (Cell Proliferation, 2019).

Tests used:
rat chondrocytes = assay: CCK8 cell viability / cytotoxicity assay; type: cell-based
Method: Rat chondrocytes were isolated using a method adapted from a previous study.9 Briefly, articular cartilage was retrieved from the knees of healthy Sprague-Dawley rats (male, n = 5, weight: 150 g). The cartilage was minced, and pieces digested with 2 mg/mL of collagenase type II (Gibco) for 2 hours. After removal of undigested tissue, the cells were cultured in DMEM/F12 (1:1) supplemented with 10% FBS. Passage 2-3 (P2-3) cells were used in the experimental studies. The bakuchiol was purchased from Selleck ([…]). Animal experiment protocol was reviewed and approved by the Institutional Review Board (IRB) of Chongqing University. Cell viability in response to BAK was evaluated using a cell counting kit-8 (CCK8) assay which was also utilized to assess cell viability. Cells were seeded at a density of 1 × 10^4 cells/well in a 24-well plate and the cytotoxicity of BAK tested using concentrations of 1 to 100 μmol/L for 3 days. The cells were then treated with 10 μmol/L BAK for 7 days. The cells were then washed with PBS and incubated in serum-free medium containing 10% CCK8 reagent for 2-3 hours at 37°C in an atmosphere containing 5% CO2. Aliquots were pipetted into a 96-well plate and absorbance at 490 nm measured using a plate reader (Bio-Rad).

chondrocytes = assay: EdU DNA proliferation assay; type: cell-based, rat; conditions: 10 and 20 µmol/L, 24 and 48 hours
Method: Chondrocyte proliferation was quantified using an ethynyl deoxyuridine (EdU) DNA in vitro proliferation detection kit (Guangzhou RiboBio) using flow cytometry, in accordance with the manufacturer's instructions.14 Images of cells were captured by light with microscopy using Image‐Pro Plus 6.0 software (Media Cybernetics). The number of EdU‐labelled cells was calculated from fields randomly selected in each well. Numbers of cells in each phase of the cell cycle were calculated using a BD FACS Calibur Flow Cytometer at a 488 nm excitation wavelength.

CDK1 [1] = assay: qRT-PCR gene expression of CDK1; type: cell-based, rat; conditions: 10 µmol/L, 48 hours
Description: (§1) Cells were harvested using Trizol reagent (Invitrogen), followed by RNA isolation. Each sample was reverse transcribed to cDNA using a RevertAid First Strand cDNA Synthesis Kit (Thermo Fisher Scientific). The reverse transcription product was then used as a template to perform real‐time polymerase chain reaction (PCR) on a StepOne Plus thermal cycler (Applied Biosystems) using PowerUp™ SYBR™ Green Master Mix (Applied Biosystems), following the manufacturer's guidelines. The primers for CDK1 (F: 5′‐[…]‐3′; R: 5′‐[…]‐3′), E2F1 (F: 5′‐[…]‐3′; 5′‐[…]‐3′), MKI67 (F: 5′‐[…]‐3′; R: 5′‐[…]‐3′) were synthesized by Invitrogen. The final data were analysed by the 2^−ΔΔ ^C ^t method.

E2F1 [2] = assay: qRT-PCR gene expression of E2F1; type: cell-based, rat; conditions: 10 µmol/L, 48 hours
Description: as §1

MKI67 [3] = assay: qRT-PCR gene expression of MKI67; type: cell-based, rat; conditions: 10 µmol/L, 48 hours
Description: as §1

CDK1 [4] = assay: Western blotting for CDK1 protein; type: cell-based, rat; conditions: for CDK1 protein levels in chondrocytes: inhibitor 1 µmol/L added to 10 µmol/L BAK
Method: (§2) Western blotting analysis was performed as described previously. After separation using SDS‐PAGE then transfer to PVDF membranes, the target proteins were detected after incubating with primary antibodies for CDK1 (Abcam: ab18, 1:1000), E2F1 (Abcam: ab179445, 1:1000), phosphorylated Akt (CST: 9271, 1:1000), Akt (CST: 9272, 1:1000), phosphorylated ERK1/2 (Abcam: ab201015, 1:1000), ERK1/2 (Abcam: ab36991, 1:1000) and ERα (Santa Cruz: sc‐8005, 1:200). The membranes were then incubated with the corresponding secondary antibody at 37°C for 1 hour Finally, the immunoreactive bands were developed using SuperSignal West Femto Maximum sensitivity substrate (Thermo Fisher Scientific), and the images analysed using Quantity One Software (Bio‐Rad). The PI3K‐Akt and ERK signalling pathways were involved in the regulation of cell proliferation by BAK. Two methods of analysis were conducted to verify this. Firstly, the cells were treated with BAK or BAK plus the Akt or ERK inhibitors PI‐103 and SCH772984, respectively. Following culture of the cells, Western blotting was used to ascertain if Akt or ERK1/2 were phosphorylated and to verify the association between BAK and the activation of the Akt and ERK1/2 pathways. Secondly, ERα siRNA (ERα si‐R) was used to knockdown estrogen receptor in the target cells, which were then further cultured for 48 hours with BAK. Meanwhile, the non‐treatment group was used as the control. Finally, the protein expression levels of CDK1 and phosphorylated and total Akt (p/t‐Akt) were detected using Western blotting so as to confirm the involvement of the ERα/PI3K‐Akt/ERK axis signalling pathways in cell proliferation by BAK stimulation.

E2F1 [5] = assay: Western blotting for E2F1 protein; type: cell-based, rat; conditions: BAK 1 to 10 µmol/L for 3 d
Method: Western blotting analysis was performed as described previously. After separation using SDS‐PAGE then transfer to PVDF membranes, the target proteins were detected after incubating with primary antibodies for CDK1 (Abcam: ab18, 1:1000), E2F1 (Abcam: ab179445, 1:1000), phosphorylated Akt (CST: 9271, 1:1000), Akt (CST: 9272, 1:1000), phosphorylated ERK1/2 (Abcam: ab201015, 1:1000), ERK1/2 (Abcam: ab36991, 1:1000) and ERα (Santa Cruz: sc‐8005, 1:200). The membranes were then incubated with the corresponding secondary antibody at 37°C for 1 hour Finally, the immunoreactive bands were developed using SuperSignal West Femto Maximum sensitivity substrate (Thermo Fisher Scientific), and the images analysed using Quantity One Software (Bio‐Rad).

Akt = assay: Western blotting for phosphorylated/total Akt; type: cell-based, rat
Method: as §2, with “Following culture of the cells, Western blotting was used to ascertain if Akt or ERK1/2 were phosphorylated and to verify the association between BAK and the activation of the Akt and ERK1/2 pathways. Secondly, ERα siRNA (ERα si‐R) was used to knockdown estrogen receptor in the target cells, which were then further cultured for 48 hours with BAK. Meanwhile, the non‐treatment group was used as the control.” left out

ERK1/2 = assay: Western blotting for phosphorylated/total ERK1/2; type: cell-based, rat
Method: as §2, with “Following culture of the cells, Western blotting was used to ascertain if Akt or ERK1/2 were phosphorylated and to verify the association between BAK and the activation of the Akt and ERK1/2 pathways. Secondly, ERα siRNA (ERα si‐R) was used to knockdown estrogen receptor in the target cells, which were then further cultured for 48 hours with BAK. Meanwhile, the non‐treatment group was used as the control.” left out

MKI67 [6] = assay: Immunofluorescent staining of MKI67 in chondrocytes; type: cell-based, rat; conditions: 10 µmol/L, relative to control
[7] = tested on: knee articular cartilage defect; assay: Rat knee articular cartilage defect model, histological evaluation; type: in vivo, Sprague‐Dawley (SD) rats; conditions: Matrigel with bakuchiol 100 µmol/L implanted locally
Method: (§3) Animal experiments were conducted in accordance with protocols approved by the Chongqing University Animal Care and Use Committee. For the cartilage injury model, a 0.5‐mm‐deep thickness defect was created through the articular cartilage and subchondral bone of the patellar groove of Sprague‐Dawley (SD) rats (200‐250 g) using a micro‐electrical drill. Matrigel mixed with bakuchiol (100 µmol/L) was implanted locally to fill the cartilage defect. Articular cartilage samples were harvested after 1 and 2 weeks post‐implantation for macroscopic and histological evaluation, with analysis by micro‐CT. The harvested samples were embedded in paraffin, sectioned for 10 μm thickness and then stained with haematoxylin and eosin (H&E), Safranin‐O green and Alcian blue. The sections were scored histologically in accordance with previous studies.9, 17, 18 The relative area of each defect (Figure 6: area within the dashed line) in the different groups was measured using Image J. The relative content of cartilage matrix was ascertained from the degree of Safranin staining (Red area) and GAG content by Alcian blue staining (Positive blue area). All morphological measurements were performed using Image J. The mean histological scores for each group were statistically analysed, with t tests performed between the BAK‐treated group and control. In addition, the histological immunofluorescent staining for Ki67, p‐Akt, and p‐ERK was performed to verify the in vivo mechanisms of BAK on cell proliferation.

Ki67, p‐ERK and p‐Akt = assay: Immunofluorescent staining of Ki67, p-Akt, p-ERK at the defect site; type: in vivo, Sprague‐Dawley (SD) rats; conditions: 1 and 2 weeks post-injury
Method: as §3, with “In addition, the histological immunofluorescent staining for Ki67, p‐Akt, and p‐ERK was performed to verify the in vivo mechanisms of BAK on cell proliferation.” left out

estrogen receptor = tested on: estrogen receptor; set-up: method as in earlier work; conditions: ref 11 (Lim et al); cited from earlier work

C=C[C@@](C)(/C=C/c1ccc(O)cc1)CCC=C(C)C [BAK, bakuchiol]
cell viability vs control (rat chondrocytes; 10 µmol/L, 7 days of culture): promoted cell viability | toxicity in the cells (rat chondrocytes; 100 µmol/L): clear toxicity | cytotoxic effects on chondrocytes (rat chondrocytes; 1 to 100 µmol/L, after 24 hours): no cytotoxic effects | proliferation of chondrocytes vs control (rat chondrocytes; 5, 10 and 20 µmol/L, control 0.1% DMSO): increased proliferation significantly | EC50 (rat chondrocytes; Rattus norvegicus, Chondrocyte, CCK8, chondrocytes, 24 h, Figure 1A, read-out: EC50 of BAK): 8.9 µM | IC50 (rat chondrocytes; Rattus norvegicus, Chondrocyte, CCK8, chondrocytes, Figure S1, read-out: IC50 (toxicity in the cells)): 48.5 µM | BAK concentration in the medium with significant cytotoxicity (rat chondrocytes; chondrocytes): > 20 µmol/L | cell proliferation (EdU staining) (chondrocytes): significantly promoted cell proliferation | mRNA level of CDK1 (CDK1 [1]): significantly up‐regulated | mRNA level of E2F1 (E2F1 [2]): significantly up‐regulated | mRNA level of MKI67 (MKI67 [3]): significantly up‐regulated | CDK1 protein synthesis (CDK1 [4]; 10 µmol/L BAK, Figure 4): significantly stimulated CDK1 protein synthesis | CDK1 protein synthesis (CDK1 [4]; BAK 1 to 10 µmol/L for 3 d): stimulated CDK1 protein synthesis | E2F1 protein (translation level) (E2F1 [5]): up‐regulated E2F1 at the translation level | ratio of phosphorylated/total Akt (p/t-Akt) (Akt; 10 µmol/L BAK): improved the ratios | ratio of phosphorylated/total ERK1/2 (p/t-ERK1/2) (ERK1/2; 10 µmol/L BAK): improved the ratios | MKI67 protein synthesis (immunofluorescent staining) (MKI67 [6]): clearly promoted MKI67 protein synthesis | histological score of the defects ([7]; 1 week): 3.60 ± 0.54 | histological score of the defects ([7]; 2 weeks): 5.40 ± 0.55 | content of GAG vs control ([7]; Alcian blue): clearly different | expression of Ki67, p-ERK and p-Akt in vivo (Ki67, p‐ERK and p‐Akt): promoted the expression | estrogen receptor-binding affinity (estrogen receptor): high estrogen receptor‐binding affinity

Oc1cccc(-c2nc(N3CCOCC3)c3oc4ncccc4c3n2)c1 [PI‐103]
CDK1 protein levels in chondrocytes (CDK1 [4]): reduced | p/t-Akt ratio in chondrocytes (Akt; 1 µmol/L PI-103 added to 10 µmol/L BAK): reduced

O=C(Nc1ccc2[nH]nc(-c3ccncc3)c2c1)[C@@H]1CCN(CC(=O)N2CCN(c3ccc(-c4ncccn4)cc3)CC2)C1 [SCH772984]
CDK1 protein levels in chondrocytes (CDK1 [4]): reduced | p/t-ERK1/2 ratio in chondrocytes (ERK1/2; 1 µmol/L SCH772984 added to 10 µmol/L BAK): reduced
